In patent US10770169B2, “Method of providing a treatment to a subject based on a dynamic pathway map” (THE REGENTS OF THE UNIVERSITY OF CALIFORNIA, priority 2010, dated 2020):
Read-outs that look alike come from different tables or passages of the source.

How the values were obtained:
[1] = tested on: panel of 55 breast cancer cell lines; assay: Cell growth inhibition assay (Cell Titer Glo, 72 h, 9 doses; GI50, TGI, LC50); format: cell-based, human; conditions: Homo sapiens, read-out: GI50 (converted)
[2] = tested on: luminal, basal, claudin-low and ERBB2AMP breast cancer cell lines; assay: Associations of clinically relevant subtypes and response (non-parametric ANOVA or t-test on GI50 ranks); format: cell-based, human; conditions: Table 6; most sensitive subtype, FDR p<0.20
Summary of the method: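 Significance was set at FDR p<0.20 after combining p-values across three test sets. Subtype–response associations came from rank-based non-parametric ANOVA or t-tests on GI50. For three-class comparisons, post-hoc tests of each group against the rest identified the most sensitive group, with FDR correction.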

[3] = tested on: breast cancer cell lines with aberrant vs normal copy number; assay: Association of recurrent copy number changes and response (t-test on GI50); format: cell-based, human; conditions: FDR p<0.2
Summary of the method: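 A t-test compared GI50 between cell lines with high amplification at 8q24 (MYC), 11q13 (CCND1) or 20q13 (STK15/AURKA) and lines with low or no amplification, grouped together. Lines whose GI50 equalled the maximum concentration tested were excluded. Compounds with any group under five samples were also excluded.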

[4] = biological target: CDK4 (Homo sapiens, UniProt P11802); conditions: cited from earlier work
CDK4, sequence (P11802 whole entry, species assumed): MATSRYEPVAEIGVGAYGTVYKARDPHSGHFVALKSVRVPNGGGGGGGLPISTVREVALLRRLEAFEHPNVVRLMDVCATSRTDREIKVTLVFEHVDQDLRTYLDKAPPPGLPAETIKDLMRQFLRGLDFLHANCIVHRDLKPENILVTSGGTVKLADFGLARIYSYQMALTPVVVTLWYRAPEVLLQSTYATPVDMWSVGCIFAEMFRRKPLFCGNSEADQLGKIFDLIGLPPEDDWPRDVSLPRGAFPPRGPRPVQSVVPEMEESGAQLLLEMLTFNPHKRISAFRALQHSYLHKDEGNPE
CDK4, sequence (P24385 whole entry partner, species assumed): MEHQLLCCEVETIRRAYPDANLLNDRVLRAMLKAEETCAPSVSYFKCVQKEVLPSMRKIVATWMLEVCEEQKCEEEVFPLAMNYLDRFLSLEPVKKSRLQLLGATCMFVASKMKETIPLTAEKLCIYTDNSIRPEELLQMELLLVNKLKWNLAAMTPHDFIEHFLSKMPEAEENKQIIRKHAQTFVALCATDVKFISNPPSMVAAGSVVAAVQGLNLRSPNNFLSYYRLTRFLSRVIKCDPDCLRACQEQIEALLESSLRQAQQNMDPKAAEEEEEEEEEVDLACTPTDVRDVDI

## O=C1c2ccccc2-[n+]2ccc3c([nH]c4ccccc43)c21 [Fascaplysin]
[1]; 600MPE cell line, censored GI50 values
  GI50: 288 nM
[1]; AU565, AU565 cell line, censored GI50 values
  GI50: 120 nM
[1]; AU565, cell line AU565
  GI50: 120 nM
[1]; BT-20, BT20 cell line, censored GI50 values
  GI50: 309 nM
[1]; BT-20, cell line BT20
  GI50: 309 nM
[1]; BT-474, BT474 cell line, censored GI50 values
  GI50: 191 nM
[1]; BT-474, cell line BT474
  GI50: 191 nM
[1]; BT-483, BT483 cell line, censored GI50 values
  GI50: 66.1 nM
[1]; BT-483, cell line BT483
  GI50: 66.1 nM
[1]; BT-549, BT549 cell line, censored GI50 values
  GI50: 513 nM
[1]; BT-549, cell line BT549
  GI50: 513 nM
[1]; CAMA-1, CAMA1 cell line, censored GI50 values
  GI50: 245 nM
[1]; CAMA-1, cell line CAMA1
  GI50: 245 nM
[1]; HCC38, HCC38 cell line, censored GI50 values
  GI50: 275 nM
[1]; HCC38, cell line HCC38
  GI50: 275 nM
[1]; HCC70, HCC70 cell line, censored GI50 values
  GI50: 126 nM
[1]; HCC70, cell line HCC70
  GI50: 126 nM
[1]; HCC202, HCC202 cell line, censored GI50 values
  GI50: 42.7 nM
[1]; HCC202, cell line HCC202
  GI50: 42.7 nM
[1]; HCC1143, HCC1143 cell line, censored GI50 values
  GI50: 275 nM
[1]; HCC1143, cell line HCC1143
  GI50: 275 nM
[1]; HCC1187, HCC1187 cell line, censored GI50 values
  GI50: 15.5 nM
[1]; HCC1187, cell line HCC1187
  GI50: 15.5 nM
[1]; HCC1395, HCC1395 cell line, censored GI50 values
  GI50: 324 nM
[1]; HCC1395, cell line HCC1395
  GI50: 324 nM
[1]; HCC1419, HCC1419 cell line, censored GI50 values
  GI50: 263 nM
[1]; HCC1419, cell line HCC1419
  GI50: 263 nM
[1]; HCC1428, HCC1428 cell line, censored GI50 values
  GI50: 37.2 nM
[1]; HCC1428, cell line HCC1428
  GI50: 37.2 nM
[1]; HCC1500, HCC1500 cell line, censored GI50 values
  GI50: 224 nM
[1]; HCC1500, cell line HCC1500
  GI50: 224 nM
[1]; HCC1806, HCC1806 cell line, censored GI50 values
  GI50: 257 nM
[1]; HCC1806, cell line HCC1806
  GI50: 257 nM
[1]; HCC1937, HCC1937 cell line, censored GI50 values
  GI50: 389 nM
[1]; HCC1937, cell line HCC1937
  GI50: 389 nM
[1]; HCC1954, HCC1954 cell line, censored GI50 values
  GI50: 269 nM
[1]; HCC1954, cell line HCC1954
  GI50: 269 nM
[1]; HCC2185 cell line, censored GI50 values
  GI50: 126 nM
[1]; HCC3153 cell line, censored GI50 values
  GI50: 347 nM
[1]; LY2 cell line, censored GI50 values
  GI50: 7.94 nM
[1]; MCF7, MCF7 cell line, censored GI50 values
  GI50: 191 nM
[1]; MCF7, cell line MCF7
  GI50: 191 nM
[1]; MDA-MB-134-VI, MDAMB134VI cell line, censored GI50 values
  GI50: 224 nM
[1]; MDA-MB-157, MDAMB157 cell line, censored GI50 values
  GI50: 170 nM
[1]; MDA-MB-157, cell line MDAMB157
  GI50: 170 nM
[1]; MDA-MB-175-VII, MDAMB175VII cell line, censored GI50 values
  GI50: 191 nM
[1]; MDA-MB-231, MDAMB231 cell line, censored GI50 values
  GI50: 251 nM
[1]; MDA-MB-231, cell line MDAMB231
  GI50: 251 nM
[1]; MDA-MB-361, MDAMB361 cell line, censored GI50 values
  GI50: 81.3 nM
[1]; MDA-MB-361, cell line MDAMB361
  GI50: 81.3 nM
[1]; MDA-MB-415, MDAMB415 cell line, censored GI50 values
  GI50: 60.3 nM
[1]; MDA-MB-415, cell line MDAMB415
  GI50: 60.3 nM
[1]; MDA-MB-436, MDAMB436 cell line, censored GI50 values
  GI50: 417 nM
[1]; MDA-MB-436, cell line MDAMB436
  GI50: 417 nM
[1]; MDA-MB-453, MDAMB453 cell line, censored GI50 values
  GI50: 87.1 nM
[1]; MDA-MB-453, cell line MDAMB453
  GI50: 87.1 nM
[1]; MDA-MB-468, MDAMB468 cell line, censored GI50 values
  GI50: 77.6 nM
[1]; MDA-MB-468, cell line MDAMB468
  GI50: 77.6 nM
[1]; SK-BR-3, SKBR3 cell line, censored GI50 values
  GI50: 224 nM
[1]; SK-BR-3, cell line SKBR3
  GI50: 224 nM
[1]; SUM52PE, SUM52PE cell line, censored GI50 values
  GI50: 182 nM
[1]; SUM52PE, cell line SUM52PE
  GI50: 182 nM
[1]; SUM149PT, SUM149PT cell line, censored GI50 values
  GI50: 398 nM
[1]; SUM149PT, cell line SUM149PT
  GI50: 398 nM
[1]; SUM185PE, SUM185PE cell line, censored GI50 values
  GI50: 55 nM
[1]; SUM185PE, cell line SUM185PE
  GI50: 55 nM
[1]; SUM225CWN, SUM225CWN cell line, censored GI50 values
  GI50: 67.6 nM
[1]; SUM225CWN, cell line SUM225CWN
  GI50: 67.6 nM
[1]; SUM1315MO2, SUM1315MO2 cell line, censored GI50 values
  GI50: 417 nM
[1]; SUM-159-PT, SUM159PT cell line, censored GI50 values
  GI50: 427 nM
[1]; SUM-159-PT, cell line SUM159PT
  GI50: 427 nM
[1]; T47D, T47D cell line, censored GI50 values
  GI50: 457 nM
[1]; T47D, cell line T47D
  GI50: 457 nM
[1]; UACC-893, UACC893 cell line, censored GI50 values
  GI50: 186 nM
[1]; UACC-893, cell line UACC893
  GI50: 186 nM
[1]; ZR-75-1, ZR751 cell line, censored GI50 values
  GI50: 355 nM
[1]; ZR-75-1, cell line ZR751
  GI50: 355 nM
[1]; ZR-75B, ZR75B cell line, censored GI50 values
  GI50: 407 nM
[1]; ZR-75B, cell line ZR75B
  GI50: 407 nM
[1]; cell line 600MPE
  GI50: 288 nM
[1]; cell line HCC2185
  GI50: 126 nM
[1]; cell line HCC3153
  GI50: 347 nM
[1]; cell line LY2
  GI50: 7.94 nM
[1]; cell line MDAMB134V
  GI50: 224 nM
[1]; cell line MDAMB175V
  GI50: 191 nM
[1]; cell line SUM1315MO
  GI50: 417 nM
[2]
  Subtype specificity: Luminal
[3]
  association of response with homozygous deletion at 9p21 (CDKN2A): associated with response
[4]
  inhibition of CDK4: inhibited CDK4
